Data as given in patent US20170273901A1, “SUNITINIB FORMULATIONS AND METHODS FOR USE THEREOF IN TREATMENT OF OCULAR DISORDERS” (THE JOHNS HOPKINS UNIVERSITY, priority 2014, published 2017).

How the values were obtained:
corneal NV = assay: Treatment of suture-induced corneal NV, quantitative analysis of NV area and length; format: in vivo, Sprague Dawley rats; details: single SC injection 30 μL, 5 mg sunb-malate/mL; POD 5, 7, 14
Excerpt: Corneal NV was induced by intrastromal suturing. […] The distance between the stitch and the limbus was approximately 2 mm while there was a distance of 1 mm between the two stitches. […] Erythromycin antibiotic ointment was applied to prevent potential infection and corneal dry-up. The rats were followed for 2 weeks. The corneas of all rats were examined by slit-lamp biomicroscope (SL120; Carl Zeiss AG, Oberkochen, Germany) and corneal photographs were taken with a digital camera. The area and length of vascularized cornea were quantified with Photoshop CS3.0. The arc was drawn along the limbus, the vascularized area pixel measured and the corneal NV area was calculated using the following equation: The vascularized area was evenly divided into six sections. The distance between vessel tips and the limbus at the five intersection points of the arc was measured. The average of the five measured lengths was regarded as the corneal NV length.

[1] = Drug ocular retention in vivo after SC injection (autofluorescence imaging of eyeballs); design: species or system Sprague Dawley rats; details: rat eye
Experimental: At post injection (PI) day 0, 1, 3, 7, 14 and 28, the whole eyeballs (n=4) were harvested after the animals were sacrificed. […] The fluorescent images were analyzed using the Living Image 3.0 software (Caliper Lifesciences, Inc.), and the retention of sunitinib was quantified by comparing to the fluorescence counts of the eye immediately undertaken SC injection. Rat eyes without SC injection were used as the baseline.

[2] = Solubility of sunb-malate in PBS; format: physicochemical

time to clearance after SC injection ([1]; 30 μL of 5 mg/mL): ≤ 1 days | time to almost no drug retention in the eye ([1]; SC injection): ≤ 24 h | concentration dissolved in PBS [2]: at least 25 mg/mL
SMILES: CCN(CC)CCNC(=O)c1c(C)[nH]c(/C=C2\C(=O)Nc3ccc(F)cc32)c1C.O=C(O)C[C@H](O)C(=O)O [Sunb-malate free drug, Sunitinib malate]
inhibition of corneal NV (length and area) (corneal NV): negligible effect
